“Also recorded” adds a separate entry of the source.
Legend:
[1] = tested on: vascular thrombosis of the rat tail induced by K-carrageenin and endothelin-1; experiment: Experimental thrombotic vascular disease test (K-carrageenin + endothelin-1, rat tail); assay type: in vivo; conditions: for % inhibition of thrombosis after 2 h: 2 h after K-carrageenin; for % inhibition of thrombosis after 24 h: 24 h after K-carrageenin; for protective effect against the onset or severity of the vasculopathy lesions induced (in words): summary of Tables 1 and 2
Experimental: The method used in these tests was that described by Bekemeier (Bekemeier H., Agents and Actions, 16:446, 1985) modified by Bertelli (Bertelli A., Drugs Exptl. Clin. Res., 19:7, 1993) which consists in injecting K-carrageenin (0.5 mg/kg carrageenin, Sigma Chemical St. Louis Mo., USA) into the dorsal artery of the rat tail and, immediately prior to the K-carrageenin injection, 500 pmol/kg of endothelin-1 (Peninsula Laboratories, Belmont Calif., USA) by intravenous injection. With this method, as early as the second hour after injection of K-carrageenin, vascular thrombosis developed which could be estimated by measuring the length of the infarcted portion of the tail, the length of the entire tail and the ratio between the two (% infarcted tail).
The phenomenon was assessed two and twenty-four hours after injection of K-carrageenin. […]

[2] = tested on: mice administered scopolamine; experiment: Learning test (water maze, scopolamine-treated mice); assay type: in vivo, mouse; conditions: for Latency period, administration (per os, 3 days): oral for three consecutive days, carnitines 300 mg/kg, coenzyme Q10 20 mg/kg; for Latency period, administration (per os, 3 days) / Latency period, administration (I.P.): scopolamine 3 mg/kg i.p.; for Latency period, administration (I.P.): single intraperitoneal dose one hour before test, carnitines 100 mg/kg, coenzyme Q10 50 mg/kg; for activity in the learning test (in words): summary of Table 5
Experimental: These tests were performed in mice using the water maze procedure as described by Morris (Morris R., J. Neurosci. Meth., 11:47, 1984) and modified by Lin (Lin Y., Acta Pharmacol. Sin., 19:413, 1998). The procedure consists in placing, in a maze situated in a tank containing water (80 cm×50 cm×20 cm) 10 cm deep, mice of both sexes weighing approximately 20 g each, which, after a suitable period of training in the task of finding their way back to the final platform and after selecting those that took less than 20 min to do so, were divided into various groups.
Both intraperitoneal and oral administration were carried out one hour prior to the start of the test. Half an hour before the start all the animals were administered scopolamine intraperitoneally at the dose of 3 mg/kg. As is known, scopolamine induces abnormalities of spatial orientation and prolongs latency time in finding the way to reach the platform.
After the test the latency time to reach the platform was calculated for each animal.

[3] = tested on: ischaemic area caused by occlusion of middle cerebral artery (MCA); experiment: Experimental cerebral ischaemia test (endothelin-1 occlusion of middle cerebral artery); assay type: in vivo, rat; conditions: for Extent of cerebral ischaemia due to occlusion of the MCA (% reduction in volume compared to controls): intravenous, five minutes after endothelin injection, carnitines 100 mg/kg, coenzyme Q10 50 mg/kg, evaluated three days later; for ability to reduce the extent of the ischaemia induced by occlusion of the MCA (in words): summary of Table 3
Experimental: With this test, the ischaemic area caused by occlusion of middle cerebral artery (MCA) was evaluated using the method described by Scharkey (Scharkey Y., Nature, 371:336, 1994), performed by injecting endothelin-1 (120 pmol in […]) in 5 minutes into anaesthetised rats with a microcannula placed stereotactically in the piriform cortex at the level of the middle cerebral artery. With this method, occlusion of the middle cerebral artery is induced and the resulting ischaemic area can be visualised three days later with transcardiac perfusion of a paraformaldehyde solution (4% in PBS). After extracting the cerebral mass, the latter was placed for twenty-four hours in a fixative containing 10% sucrose, and cryostat sections ([…]) fixed with resyl violet were examined under the optical microscope. The volume of the infarcted area was calculated according to the method described by Park (Park C. K., Ann. Neurol., 20:150, 1989).

[4] = tested on: papillary muscle of rabbit heart subjected to hypoxia; experiment: Myocardial anti-anoxic activity test (ATP in hypoxic papillary muscle); assay type: in vivo; conditions: for ATP concentrations, after hypoxia / ATP concentrations, before hypoxia: daily i.v. for three days (carnitines 100 mg/kg, combination 5 x 25 mg/kg, coenzyme Q10 50 mg/kg); for ATP concentrations, after hypoxia: after a 90 min anoxia period; for ATP concentrations, before hypoxia: papillary muscle under oxygen perfusion for 90 min; for preservation of ATP concentrations in papillary muscle (in words): summary of Table 4
Source text: This test was used to assess the ability of propionyl L-carnitine to protect the myocardium against the loss of ATP induced by anoxia and to preserve energy capacity even in these conditions.
An attempt was therefore made to establish whether prior treatment with propionyl L-carnitine, L-carnitine, carnitine combination or coenzyme Q10 alone or in combination with propionyl L-carnitine or with the other preparations was capable of preserving normal ATP concentrations in the hypoxic myocardium.
After three days of treatment, all the animals were sacrificed. Sections of papillary muscle measuring 1 mm in diameter and 4-5 mm in thickness were isolated. These samples of papillary muscle were perfused in a thermostatic bath with a saturated solution of 100% O2. The hypoxia was then produced by introducing 100% N2 in the bath in place of O2. The ATP concentrations in papillary muscle were measured using the method described by Strehler (Strehler B. L., Methods in Enzymology, 111, N.Y. Acad. Press, 879, 1957). The analysis was done on tissue samples maintained under oxygen perfusion for 90 min and after a 90 min anoxia period.

Sprague-Dawley male rats = experiment: Toxicology test, single oral administration of high doses; assay type: in vivo; conditions: propionyl L-carnitine 2 g/kg, coenzyme Q10 0.2 g/kg, or the same amounts in combination
Source text: Their use in combination also produces no damaging toxicological effects.

[5] = intravenous administration, carnitines 50 mg/kg (combination 5 x 10 mg/kg), coenzyme Q10 20 mg/kg
[6] = oral administration for four days prior to the test, carnitines 300 mg/kg (combination 5 x 75 mg/kg), coenzyme Q10 100 mg/kg

COC1=C(OC)C(=O)C(C/C=C(\C)CC/C=C(\C)CC/C=C(\C)CC/C=C(\C)CC/C=C(\C)CC/C=C(\C)CC/C=C(\C)CC/C=C(\C)CC/C=C(\C)CCC=C(C)C)=C(C)C1=O [Coenzyme Q10, coenzyme Q10]
% inhibition of thrombosis after 2 h [1, 5]: 11.7 ± 0.9%
% inhibition of thrombosis after 24 h [1, 5]: 14.5 ± 1.3%
% inhibition of thrombosis after 2 h [1, 6]: 13.8 ± 1.7%
% inhibition of thrombosis after 24 h [1, 6]: 12.5 ± 1.7%
protective effect against the onset or severity of the vasculopathy lesions induced (in words) [1]: poorly effective
Latency period, administration (per os, 3 days) [2]: 31 ± 12 s
Latency period, administration (I.P.) [2]: 31 ± 18 s
Extent of cerebral ischaemia due to occlusion of the MCA (% reduction in volume compared to controls) [3]: 22.2 ± 2.9%
ATP concentrations, after hypoxia [4]: 0.64 ± 0.068 µmol/g tissue
ATP concentrations, before hypoxia [4]: 1.65 ± 0.7 µmol/g tissue
preservation of ATP concentrations in papillary muscle (in words) [4]: at least partially maintaining the ATP concentrations

CCC(=O)O[C@H](CC(=O)[O-])C[N+](C)(C)C [Propionyl L-carnitine, propionyl L-carnitine]
% inhibition of thrombosis after 2 h [1, 5]: 16.25 ± 0.7%
% inhibition of thrombosis after 24 h [1, 5]: 26.45 ± 1.9%
% inhibition of thrombosis after 2 h [1, 6]: 14.5 ± 0.7%
% inhibition of thrombosis after 24 h [1, 6]: 30.5 ± 3.3%
protective effect against the onset or severity of the vasculopathy lesions induced (in words) [1]: protective effect
Latency period, administration (per os, 3 days) [2]: 30 ± 16 s
Latency period, administration (I.P.) [2]: 32 ± 12 s
Extent of cerebral ischaemia due to occlusion of the MCA (% reduction in volume compared to controls) [3]: 30.3 ± 3.6%
ability to reduce the extent of the ischaemia induced by occlusion of the MCA (in words) [3]: good ability to reduce the extent of the ischaemia
ATP concentrations, after hypoxia [4]: 0.64 ± 0.055 µmol/g tissue
ATP concentrations, before hypoxia [4]: 1.58 ± 0.64 µmol/g tissue
preservation of ATP concentrations in papillary muscle (in words) [4]: at least partially maintaining the ATP concentrations
toxic effects or signs of intolerance (Sprague-Dawley male rats): failed to reveal any toxic effects or signs of intolerance

CC(=O)O[C@H](CC(=O)[O-])C[N+](C)(C)C [Acetyl L-carnitine, acetyl L-carnitine]
% inhibition of thrombosis after 2 h [1, 5]: 8.8 ± 0.7%
% inhibition of thrombosis after 24 h [1, 5]: 10.6 ± 0.8%
% inhibition of thrombosis after 2 h [1, 6]: 9.2 ± 0.8%
% inhibition of thrombosis after 24 h [1, 6]: 11.5 ± 1.5%
protective effect against the onset or severity of the vasculopathy lesions induced (in words) [1]: ineffective
activity in the learning test (in words) [2]: only poor activity
Extent of cerebral ischaemia due to occlusion of the MCA (% reduction in volume compared to controls) [3]: 15.8 ± 1.4%
ability to reduce the extent of the ischaemia induced by occlusion of the MCA (in words) [3]: no significant protective effect
ATP concentrations, after hypoxia [4]: 0.54 ± 0.075 µmol/g tissue
ATP concentrations, before hypoxia [4]: 1.58 ± 0.98 µmol/g tissue

C[N+](C)(C)C[C@H](O)CC(=O)[O-] [L-carnitine]
% inhibition of thrombosis after 2 h [1, 5]: 9.5 ± 0.4%
% inhibition of thrombosis after 24 h [1, 5]: 11.5 ± 0.9%
% inhibition of thrombosis after 2 h [1, 6]: 8.5 ± 0.5%
% inhibition of thrombosis after 24 h [1, 6]: 9.2 ± 1.2%
protective effect against the onset or severity of the vasculopathy lesions induced (in words) [1]: ineffective
Latency period, administration (per os, 3 days) [2]: 39 ± 21 s
Latency period, administration (I.P.) [2]: 40 ± 20 s
activity in the learning test (in words) [2]: inactive
Extent of cerebral ischaemia due to occlusion of the MCA (% reduction in volume compared to controls) [3]: 10.5 ± 0.77%
ability to reduce the extent of the ischaemia induced by occlusion of the MCA (in words) [3]: no significant protective effect; also recorded: much less pronounced
ATP concentrations, after hypoxia [4]: 0.5 ± 0.045 µmol/g tissue
ATP concentrations, before hypoxia [4]: 1.55 ± 0.8 µmol/g tissue
preservation of ATP concentrations in papillary muscle (in words) [4]: Much more limited

From US6814972B2, “Composition for prevention and/or treatment of vascular diseases, comprising propionyl L-carnitine and coenzyme Q10” (priority 2000, dated 2004)
